The text below walks through data of US6294674A, “Dibenzofuran sulfonamide matrix metalloproteinase inhibitors” (priority 1999, dated 2001).

As a reminder, the IC50 is the concentration at which inhibition is half-maximal.

One assay deals with T1, MMP01 (Homo sapiens, UniProt P03956).
T1 construct: purchased Washington University School of Medicine, St. Louis, Mo
T1 sequence (P03956 100-469): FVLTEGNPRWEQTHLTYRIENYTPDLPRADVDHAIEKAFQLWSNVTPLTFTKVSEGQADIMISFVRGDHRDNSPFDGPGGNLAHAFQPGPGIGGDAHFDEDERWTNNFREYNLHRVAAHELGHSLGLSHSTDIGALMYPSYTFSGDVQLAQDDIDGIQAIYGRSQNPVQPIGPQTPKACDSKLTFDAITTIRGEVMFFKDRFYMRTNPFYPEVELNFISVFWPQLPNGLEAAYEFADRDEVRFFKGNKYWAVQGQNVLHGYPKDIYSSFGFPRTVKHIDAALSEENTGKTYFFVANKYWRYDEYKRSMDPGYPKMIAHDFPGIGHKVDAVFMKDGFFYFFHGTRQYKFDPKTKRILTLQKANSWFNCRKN
The assay can be described thus: Thiopeptolide assay, MMP01. The format is biochemical. As to the method: (§1) MMP01, MMP07, MMP09, and MMP13 activity was assayed in a method similar to MMP02 and MMP03 (SCD and GCD). MMP01 and MMP09 can be obtained from Washington University School of Medicine, St. Louis, Mo. MMP07 can be obtained in accordance with the known procedure set forth by Ye QZ, Johnson L. L., and Baragi V., "Gene Syntheses and Expression in E. coli for PUMP, a Human Matrix Metalloproteinase" Biochem. and Biophys. […] MMP 13 can be obtained in accordance with the known procedure set forth by Freije J. M. P., et al., "Molecular Cloning and Expression of Collegenase-3, a Novel Human Matrix Metalloproteinase Produced by Breast Carcinomas" J. Bio.
(§2) Hydrolysis of the thiopeptolide substrate Ac-Pro-Leu-Gly-thioester-Leu-Leu-Gly-OEt (Bachem) is used as the primary screen to determine IC50 values for MMP inhibitors. A 100 μL reaction contains 1 mM 5,5'-dithiobis(2-nitrobenzoic acid) (DTNB), 100 μM substrate, 0.1% Brij, enzyme, and inhibitor in the appropriate reaction buffer. Activated full-length enzymes are assayed at 5 nM, Stromelysin Catalytic Domain (SCD) at 10 nM, and Gelatinase A Catalytic Domain (GaCD) at 1 nM. Inhibitors are screened from 100 μM to 1 nM. Full-length enzymes are assayed in 50 mM HEPES, 10 mM CaCl2, pH 7.0; SCD in 50 mM MES, 10 mM CaCl2, pH 6.0; and GaCD in 50 mM MOPS, 10 mM CaCl2, 10 μM ZnCl2, pH 7.0.

In assay [1] the target is T2, stromelysin-1 catalytic domain (MMP03) (Homo sapiens, UniProt P08254).
T2 construct: SCD (stromelysin-1 catalytic domain); made in house; host or cells: Escherichia coli
The assay can be described thus: Thiopeptolide assay, stromelysin-1 catalytic domain (SCD, MMP03). Format: biochemical. As to the method: as §2

Another assay deals with T3, MMP07 (Homo sapiens, UniProt P09237).
T3 construct: made in house; host or cells: Escherichia coli
T3 sequence (P09237 95-267): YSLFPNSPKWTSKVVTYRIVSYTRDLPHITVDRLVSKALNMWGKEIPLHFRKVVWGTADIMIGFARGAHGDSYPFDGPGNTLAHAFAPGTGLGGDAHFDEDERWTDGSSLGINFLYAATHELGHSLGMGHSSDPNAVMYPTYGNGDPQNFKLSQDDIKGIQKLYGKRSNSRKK
The assay can be described thus: Thiopeptolide assay, MMP07. Format: biochemical. The method, then:
as §1, §2

For assay [2], the target named is gelatinase A catalytic domain (MMP02). The assay is described as follows: Thiopeptolide assay, gelatinase A catalytic domain (GCD, MMP02). Format: biochemical. The method, then:
as §2

The next assay concerns MMP-13CD. The assay can be described thus: Thiopeptolide assay, MMP-13CD. Format: biochemical, human. As to conditions: Tables 2, 3, 5, 7. The method, then: IC50 values were determined using a thiopeptolide substrate, Ac-Pro-Leu-Gly-thioester-Leu-Leu-Gly-OEt (Ye Q.-Z., Johnson L. L., Hupe D. J., and Baragi V., "Purification and Characterization of the Human Stromelysin Catalytic Domain Expressed in Escherichia coli," Biochemistry, 1992;31:11231-11235). MMP01, MMP07, MMP09, and MMP13 activity was assayed in a method similar to MMP02 and MMP03 (SCD and GCD). MMP01 and MMP09 can be obtained from Washington University School of Medicine, St. Louis, Mo. MMP07 can be obtained in accordance with the known procedure set forth by Ye QZ, Johnson L. L., and Baragi V., "Gene Syntheses and Expression in E. coli for PUMP, a Human Matrix Metalloproteinase" Biochem. and Biophys. Res. Comm., 1992; 186:143-149. MMP 13 can be obtained in accordance with the known procedure set forth by Freije J. M. P., et al., "Molecular Cloning and Expression of Collegenase-3, a Novel Human Matrix Metalloproteinase Produced by Breast Carcinomas" J. Bio. Chem., 1994;269:16766-6773.
as §2, with “7.0. The change in absorbance at 405 riM is monitored on a ThermoMax microplate reader at room temperature continuously for 20 minutes.” for “7.0.”

The mark [3] stands for this setting: Tables 2, 3, 5, 7, read-out: IC50 MMP1.
The mark [4] stands for this setting: Tables 2, 3, 5, 7, read-out: IC50 MMP 3CD.
Where [5] appears, read: Tables 2, 3, 5, 7, read-out: IC50 MMP-7.
The mark [6] stands for this setting: Tables 2, 3, 5, 7, read-out: IC50 MMP-2CD.
[7] abbreviates: Table 1, SCD, read-out: IC50 MMP03.
The mark [8] stands for this setting: Table 1, GCD, read-out: IC50 MMP02.

Where two headings read alike, the source gives them in different places. Some results are limits rather than exact numbers.

T2 sequence (P08254 100-272 limits assumed): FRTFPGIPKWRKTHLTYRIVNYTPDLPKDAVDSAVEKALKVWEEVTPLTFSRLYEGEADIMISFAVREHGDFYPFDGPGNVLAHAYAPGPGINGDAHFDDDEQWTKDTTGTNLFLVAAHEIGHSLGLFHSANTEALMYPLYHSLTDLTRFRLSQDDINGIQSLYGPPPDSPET

On to `O=C(NCCCCC(NS(=O)(=O)c1ccc2oc3ccccc3c2c1)C(=O)O)Nc1ccc(Cl)c(Cl)c1` (stereo not drawn) [Example B2, 2-(Dibenzofuran-2-sulfonylamino)-6-[3-(3,4dichloro-phenyl)-ureido]-hexanoicacid], for which the half-maximal inhibitory concentration (IC50) on MMP01 (setting [3]) is more than 100 µM; in assay [1] (setting [4]), 89.3 µM; on MMP07 (setting [5]), more than 100 µM; in assay [2] (setting [6]), 22200 nM; with MMP-13CD, more than 100 µM.
For the compound `O=C(CCC(NS(=O)(=O)c1ccc2oc3ccccc3c2c1)C(=O)O)Nc1ccc(Cl)cc1` (stereo not drawn) [Example F12, 4-(4-Chloro-phenylcarbamoyl)-2-(dibenzofuran-2-sulfonylamino)-butyric acid], the IC50 on MMP01 (setting [3]) is more than 100 µM; in assay [1] (setting [4]) it was 0.7 µM; at MMP07 (setting [5]), 32.4 µM; in assay [2] (setting [6]), 300 nM; in the assay on MMP-13CD, 3.7 µM.
Turning to `O=C(CCC(NS(=O)(=O)c1ccc2oc3ccccc3c2c1)C(=O)O)NCc1cccs1` (stereo not drawn) [Example F7, 2-(Dibenzofuran-2-sulfonylamino)-4-[(thiophen-2-ylmethyl)-carbamoyl]-butyric acid], the IC50 on MMP01 (setting [3]) came out at 40.9 µM; in assay [1] (setting [4]), 0.4 µM; at MMP07 (setting [5]), 12.3 µM; in assay [2] (setting [6]) it was 300 nM; with MMP-13CD, 0.3 µM.
Turning to `CC(=O)Nc1ccc(S(=O)(=O)NCCCCC(NS(=O)(=O)c2ccc3oc4ccccc4c3c2)C(=O)O)cc1` (stereo not drawn) [Example D5, 6-(4-Acetylamino-benzensulfonylamino)-2-(dibenzofuran-2-sulfonylamino)-hexanoic acid], the half-maximal inhibitory concentration (IC50) at MMP01 (setting [3]) was more than 100 µM; in assay [1] (setting [4]), 8.6 µM; on MMP07 (setting [5]), more than 100 µM; in assay [2] (setting [6]), 1200 nM; with MMP-13CD, 7.7 µM.
As for `O=C(O)C(CCCCNS(=O)(=O)c1cccc2ccccc12)NS(=O)(=O)c1ccc2oc3ccccc3c2c1` (stereo not drawn) [Example D9, 2-(Dibenzofuran-2-sulfonylamino)-6-(naphthalene-1-sulfonylamino)-hexanoic acid], the half-inhibitory concentration (IC50) was more than 100 µM at MMP01 (setting [3]); 14.2 µM in assay [1] (setting [4]); more than 100 µM at MMP07 (setting [5]); 4300 nM in assay [2] (setting [6]); 11.7 µM in the assay on MMP-13CD.
For the compound `CC(C)CC(C)NC(=O)CCC(NS(=O)(=O)c1ccc2oc3ccccc3c2c1)C(=O)O` (stereo not drawn) [Example F8, 2-(Dibenzofuran-2-sulfonylamino)-4-(1,3-dimethyl-butylcarbamoyl)-butyric acid], the IC50 is 61.3 µM at MMP01 (setting [3]); 0.4 µM in assay [1] (setting [4]); 7 µM on MMP07 (setting [5]); 100 nM in assay [2] (setting [6]); 0.2 µM in the assay on MMP-13CD.
For `COc1ccc(OCC(=O)NCCCCC(NS(=O)(=O)c2ccc3oc4ccccc4c3c2)C(=O)O)cc1` (stereo not drawn) [Example A13, 2-(Dibenzofuran-2-sulfonylamino)-6-[2-(4-methoxy-phenoxy)-acetylamino]-hexanoic acid], in that order: more than 100 µM, 2.3 µM, more than 100 µM, 1200 nM and 7.3 µM.
Regarding `O=C(CCC(NS(=O)(=O)c1ccc2oc3ccccc3c2c1)C(=O)O)NCCc1cccs1` (stereo not drawn) [Example F11, 2-(Dibenzofuran-2-sulfonylamino)-4-(2-thiophen-2-yl-ethylcarbamoyl)-butyricacid], the IC50 was more than 100 µM on MMP01 (setting [3]); 2.7 µM in assay [1] (setting [4]); more than 100 µM at MMP07 (setting [5]); 2100 nM in assay [2] (setting [6]); 3.6 µM in the assay with MMP-13CD.
Consider `Cc1ccc(CCC(=O)NCCCCC(NS(=O)(=O)c2ccc3oc4ccccc4c3c2)C(=O)O)cc1` (stereo not drawn) [Example A27, 2-(Dibenzofuran-2-sulfonylamino)-6-(3-p-tolyl-propionylamino)-hexanoic acid], for which the IC50 was more than 100 µM at MMP01 (setting [3]); 7.7 µM in assay [1] (setting [4]); more than 100 µM at MMP07 (setting [5]); 1100 nM in assay [2] (setting [6]); 5.8 µM in the assay with MMP-13CD.
As for `C=CCNC(=O)NCCCCC(NS(=O)(=O)c1ccc2oc3ccccc3c2c1)C(=O)O` (stereo not drawn) [Example B8, 6-(3-Allyl-ureido)-2-(dibenzofuran-2-sulfonylamino)-hexanoic acid], the concentration for half-maximal inhibition (IC50) on MMP01 (setting [3]) is more than 100 µM; in assay [1] (setting [4]), 3 µM; at MMP07 (setting [5]), more than 100 µM; in assay [2] (setting [6]), 1100 nM; in the assay with MMP-13CD it was 7.6 µM.
Turning to `O=C(O)C(CCCCNC(=S)Nc1cccnc1)NS(=O)(=O)c1ccc2oc3ccccc3c2c1` (stereo not drawn) [Example B3, 2-(Dibenzofuran-2-sulfonylamino)-6-(3-pyridin-3-yl-thioureido)-hexanoic acid], the half-inhibitory concentration (IC50) on MMP01 (setting [3]) was more than 100 µM; in assay [1] (setting [4]), 6.1 µM; on MMP07 (setting [5]), 93.5 µM; in assay [2] (setting [6]) it was 2100 nM; with MMP-13CD, 13.6 µM.
The like results for `O=C(Cc1ccccc1C(F)(F)F)NCCCCC(NS(=O)(=O)c1ccc2oc3ccccc3c2c1)C(=O)O` (stereo not drawn) [Example A4, 2-(Dibenzofuran-2-sulfonylamino)-6-[2-(2-trifluoromethyl-phenyl)-acetylamino]-hexanoic acid] were, in that order, more than 100 µM, 4.6 µM, more than 100 µM, 2700 nM and 3.7 µM.
On to `O=C(NCCCC[C@H](NS(=O)(=O)c1ccc2oc3ccccc3c2c1)C(=O)O)OCc1ccccc1` [Example 3, 6-Benzyloxycarbonylamino-2-(dibenzofuran-2-sulfonylamino)-hexanoic acid], for which the IC50 is 62 µM on MMP01 (Table 1, read-out: IC50 MMP01); 0.18 µM in assay [1] (setting [7]); 3.3 µM at MMP07 (Table 1, read-out: IC50 MMP07); 350 nM in assay [2] (setting [8]).
As for `CC(C)C[C@H](CNS(=O)(=O)c1ccc2oc3ccccc3c2c1)CC(=O)O` [Example 2, 2(S)-3-[(Dibenzofuran-2-sulfonylamino)-methyl]-5-methyl-hexanoic acid], the IC50 in assay [1] (setting [7]) worked out at 86 µM; in assay [2] (setting [8]), 100000 nM.
